US10167262B2, “Herbicidal substituted 3-arylpyrazoles” (FMC CORPORATION, priority 2014, dated 2019)

How the values were obtained:
Type in all cases: in vivo
[1] = test system: rice (Oryza sativa); assay: Test B flooded paddy test, plant response rating 0-100; settings: Flood, 250 g ai/ha; scale 0 to 100 (0 no effect, 100 complete control); 13 to 15 days
Summary of the method: (§1)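 In-water treatment: compound dosed into 3 cm flood over soil, water level unchanged throughout. Controls run alongside; visual assessment at day 13–15.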

[2] = test system: ducksalad (Heteranthera limosa); assay: as above; settings: Flood, 250 g ai/ha; scale 0 to 100 (0 no effect, 100 complete control); 13 to 15 days
Summary of the method: as §1

[3] = test system: barnyardgrass (Echinochloa crus-galli); assay: as above; settings: Flood, 250 g ai/ha; scale 0 to 100 (0 no effect, 100 complete control); 13 to 15 days
Summary of the method: as §1

[4] = test system: sedge, umbrella (small-flower umbrella sedge, Cyperus difformis); assay: as above; settings: Flood, 250 g ai/ha; scale 0 to 100 (0 no effect, 100 complete control); 13 to 15 days
Summary of the method: as §1

[5] = test system: giant foxtail (Setaria faberii); assay: Test A pre-/postemergence greenhouse herbicide test, visual injury rating 0-100
Summary of the method: (§2)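 Greenhouse plants received compound either as directed soil spray at planting or as postemergence spray at the one- to two-leaf stage (2–10 cm). Evaluated after about 10 days by visual comparison with untreated controls.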

[6] = test system: velvetleaf (Abutilon theophrasti); assay: as above
Summary of the method: as §2

[7] = test system: large (Lg) crabgrass (Digitaria sanguinalis); assay: as above
Summary of the method: as §2

[8] = test system: pigweed (Amaranthus retroflexus); assay: as above
Summary of the method: as §2

[9] = test system: barnyardgrass (Echinochloa crus-galli); assay: as above
Summary of the method: as §2

[10] = test system: wheat (Triticum aestivum); assay: as above
Summary of the method: as §2

[11] = test system: morningglory (Ipomoea spp.); assay: as above
Summary of the method: as §2

[12] = test system: corn (Zea mays); assay: as above
Summary of the method: as §2

CCn1cc(C(=O)c2ccccc2)c(-c2cc(F)cc(C(F)(F)F)c2)n1 [Compound 48]
Plant response rating, Rice [1]: 0 | Plant response rating, Ducksalad [2]: 0 | Plant response rating, Barnyardgrass [3]: 0 | Plant response rating, Sedge, Umbrella [4]: 0 | Plant response rating (0 to 100 scale), Foxtail, Giant ([5]; Postemergence, 1000 g ai/ha): 20 | Plant response rating (0 to 100 scale), Foxtail, Giant ([5]; Preemergence, 1000 g ai/ha): 0 | Plant response rating (0 to 100 scale), Velvetleaf ([6]; Postemergence, 1000 g ai/ha): 90 | Plant response rating (0 to 100 scale), Velvetleaf ([6]; Preemergence, 1000 g ai/ha): 80 | Plant response rating (0 to 100 scale), Crabgrass, Large ([7]; Postemergence, 1000 g ai/ha): 20 | Plant response rating (0 to 100 scale), Crabgrass, Large ([7]; Preemergence, 1000 g ai/ha): 0 | Plant response rating (0 to 100 scale), Pigweed ([8]; Postemergence, 1000 g ai/ha): 90 | Plant response rating (0 to 100 scale), Pigweed ([8]; Preemergence, 1000 g ai/ha): 100 | Plant response rating (0 to 100 scale), Barnyardgrass ([9]; Postemergence, 1000 g ai/ha): 20 | Plant response rating (0 to 100 scale), Barnyardgrass ([9]; Preemergence, 1000 g ai/ha): 0 | Plant response rating (0 to 100 scale), Wheat ([10]; Postemergence, 1000 g ai/ha): 0 | Plant response rating (0 to 100 scale), Wheat ([10]; Preemergence, 1000 g ai/ha): 0 | Plant response rating (0 to 100 scale), Morningglory ([11]; Postemergence, 1000 g ai/ha): 20 | Plant response rating (0 to 100 scale), Morningglory ([11]; Preemergence, 1000 g ai/ha): 0 | Plant response rating (0 to 100 scale), Corn ([12]; Postemergence, 1000 g ai/ha): 0 | Plant response rating (0 to 100 scale), Corn ([12]; Preemergence, 1000 g ai/ha): 0

O=C(c1ccccc1)c1cn(C(=O)C2CC2)nc1-c1cc(Cl)cc(Cl)c1 [Compound 26]
Plant response rating, Rice [1]: 0 | Plant response rating, Ducksalad [2]: 0 | Plant response rating, Barnyardgrass [3]: 0 | Plant response rating, Sedge, Umbrella [4]: 0 | Plant response rating (0 to 100 scale), Foxtail, Giant ([5]; Postemergence, 125 g ai/ha): 0 | Plant response rating (0 to 100 scale), Foxtail, Giant ([5]; Postemergence, 500 g ai/ha): 0 | Foxtail, Giant plant response rating (0 = no effect, 100 = complete control) ([5]; Preemergence, 125 g ai/ha): 0 | Plant response rating (0 to 100 scale), Foxtail, Giant ([5]; Preemergence, 500 g ai/ha): 0 | Plant response rating (0 to 100 scale), Velvetleaf ([6]; Postemergence, 125 g ai/ha): 50 | Plant response rating (0 to 100 scale), Velvetleaf ([6]; Postemergence, 500 g ai/ha): 80 | Velvetleaf plant response rating (0 = no effect, 100 = complete control) ([6]; Preemergence, 125 g ai/ha): 0 | Plant response rating (0 to 100 scale), Velvetleaf ([6]; Preemergence, 500 g ai/ha): 0 | Plant response rating (0 to 100 scale), Crabgrass, Large ([7]; Postemergence, 125 g ai/ha): 0 | Plant response rating (0 to 100 scale), Crabgrass, Large ([7]; Postemergence, 500 g ai/ha): 0 | Crabgrass, Large plant response rating (0 = no effect, 100 = complete control) ([7]; Preemergence, 125 g ai/ha): 0 | Plant response rating (0 to 100 scale), Crabgrass, Large ([7]; Preemergence, 500 g ai/ha): 0 | Plant response rating (0 to 100 scale), Pigweed ([8]; Postemergence, 125 g ai/ha): 40 | Plant response rating (0 to 100 scale), Pigweed ([8]; Postemergence, 500 g ai/ha): 80 | Pigweed plant response rating (0 = no effect, 100 = complete control) ([8]; Preemergence, 125 g ai/ha): 0 | Plant response rating (0 to 100 scale), Pigweed ([8]; Preemergence, 500 g ai/ha): 0 | Plant response rating (0 to 100 scale), Barnyardgrass ([9]; Postemergence, 125 g ai/ha): 0 | Plant response rating (0 to 100 scale), Barnyardgrass ([9]; Postemergence, 500 g ai/ha): 0 | Barnyardgrass plant response rating (0 = no effect, 100 = complete control) ([9]; Preemergence, 125 g ai/ha): 0 | Plant response rating (0 to 100 scale), Barnyardgrass ([9]; Preemergence, 500 g ai/ha): 0 | Plant response rating (0 to 100 scale), Wheat ([10]; Postemergence, 125 g ai/ha): 0 | Plant response rating (0 to 100 scale), Wheat ([10]; Postemergence, 500 g ai/ha): 0 | Wheat plant response rating (0 = no effect, 100 = complete control) ([10]; Preemergence, 125 g ai/ha): 0 | Plant response rating (0 to 100 scale), Wheat ([10]; Preemergence, 500 g ai/ha): 0 | Plant response rating (0 to 100 scale), Morningglory ([11]; Postemergence, 125 g ai/ha): 0 | Plant response rating (0 to 100 scale), Morningglory ([11]; Postemergence, 500 g ai/ha): 0 | Morningglory plant response rating (0 = no effect, 100 = complete control) ([11]; Preemergence, 125 g ai/ha): 0 | Plant response rating (0 to 100 scale), Morningglory ([11]; Preemergence, 500 g ai/ha): 0 | Plant response rating (0 to 100 scale), Corn ([12]; Postemergence, 125 g ai/ha): 0 | Plant response rating (0 to 100 scale), Corn ([12]; Postemergence, 500 g ai/ha): 0 | Corn plant response rating (0 = no effect, 100 = complete control) ([12]; Preemergence, 125 g ai/ha): 0 | Plant response rating (0 to 100 scale), Corn ([12]; Preemergence, 500 g ai/ha): 0
